# Earlier results, collected in US20170231974A1, “Combined Use of an Alpha-Adrenergic Receptor Antagonist and an Anti-Muscarinic Agent” (Astellas Ireland Co., Ltd., priority 2008, published 2017).
# Where a name gives a salt, the structure may show the parent alone.
# System: male patients with lower urinary tract symptoms associated with prostatic hyperplasia
# [1] = male patients, at least 1 urgency episode per day and 8 or more micturitions per day
SMILES,acute urinary retention (AUR) (added to doxazosin),effect on urinary flow rate (added to doxazosin),improvement of storage symptom score [1],improvement of total I-PSS [1],improvement of voiding score [1]
"CCCOC(C(=O)OC1CCN(C)CC1)(c1ccccc1)c1ccccc1 [Propiverine, propiverine hydrochloride]",no acute urinary retention (AUR) was observed,did not affect the urinary flow rate,–,–,–
COc1cc2nc(N3CCN(C(=O)C4COc5ccccc5O4)CC3)nc(N)c2cc1OC (centres unmarked) [doxazosin],–,–,2.9 points,7.3 points,4.5 points
